Laboratory results taken from PubChem BioAssay AID1996.
≈ marks a conversion by molar mass, not a printed value.

details: buffer; pH 7.4; 200.0 µM

Point of comparison: `O=C(Nc1nc2ccccc2[nH]1)C1CCCC1`, solubility kinetic 4 µg/mL (≈ 17.4 µM). Against it:
- CC1CC(C)(C)NC(=S)N1CCC(=O)N1CCc2ccccc2C1 (stereo not given) — 9.7-fold higher, 38.8 µg/mL (≈ 112 µM)
- Cc1cc(C)c(C)c(S(=O)(=O)NC(C)C(=O)O)c1C (stereo not given) — higher, > 42.8 µg/mL
- O=C(c1ccc2c(c1)OCO2)C1CCCN(C(=O)C2CCOCC2)C1 (stereo not given) — higher, > 51.8 µg/mL
- Cc1cc(C)c(CN2CCC(CO)(CCOc3ccccc3)CC2)cc1C — 9.7-fold higher, 38.6 µg/mL (≈ 105 µM)
- COC(=O)CN1CC(=O)N(c2ccccc2)C1=S — higher, > 39.6 µg/mL
- CCOc1ccc(C(=O)N2CCN(c3cccc(Cl)c3)CC2)cc1 — 3.6-fold higher, 14.3 µg/mL (≈ 41.5 µM)
- COc1ccc(C(=S)N2CCOCC2)cc1OC(=O)c1ccccc1 — 5.9-fold higher, 23.6 µg/mL (≈ 66 µM)
- CC(C)c1ccc(OCc2ccc(C(=O)N3CCCC3)o2)cc1 — 6.7-fold higher, 26.7 µg/mL (≈ 85.2 µM)
- CCCCN(C)c1c(N2CCC(C(=O)OCC)CC2)c(=O)c1=O — higher, > 48.4 µg/mL
- CC(C)(C)c1ccc(OCCCN2CCCC2)cc1 — 7.2-fold higher, 28.6 µg/mL (≈ 109 µM)
- O=C(/C=C/c1ccc(OCCCF)cc1)N1CCOCC1 — higher, > 44 µg/mL
- CC(C)c1ccc(NC2CCCN(C(=O)c3ccsc3)C2)cc1 (stereo not given) — higher, > 49.3 µg/mL
- N/C(=N\OC(=O)C12CC3CC(CC(C3)C1)C2)c1ccncc1 — 4.2-fold higher, 17 µg/mL (≈ 56.8 µM)
- O=C(Cc1ccccc1[N+](=O)[O-])NCc1ccco1 — higher, > 39 µg/mL
- CC1CN(C(=S)NC(=O)c2ccc(Cl)cc2)CC(C)O1 (stereo not given) — higher, > 46.9 µg/mL
- CN(C(=O)CSCC(=O)Nc1ccc(Cl)cc1)C1CCCCC1 — within 1.5-fold, 5.9 µg/mL (≈ 16.6 µM)
- O=C1c2ccccc2NC(c2ccccc2)N1CCCN1CCOCC1 (stereo not given) — higher, > 52.7 µg/mL
- Cc1csc2c(N3CCC(C(=O)O)CC3)ncnc12 — 9.2-fold higher, 36.9 µg/mL (≈ 133 µM)
- CCOC(=O)C1CCCN(C(=O)c2cc3cc(OC)c(OC)cc3[nH]2)C1 (stereo not given) — 4.4-fold higher, 17.5 µg/mL (≈ 48.6 µM)
- COc1ccc(NC(=O)C(CC(=O)O)C(C)c2ccccc2)cc1 (stereo not given) — higher, > 49.1 µg/mL
- CCc1ccc(-c2nc(CS(=O)CC(=O)O)c(C)o2)cc1 (stereo not given) — 12-fold higher, 46 µg/mL (≈ 150 µM)
- Cc1c(Cl)c(=O)oc2cc(OCC(=O)N3CCCC(C)C3)ccc12 (stereo not given) — 9.5-fold higher, 38 µg/mL (≈ 109 µM)
- CN(CCS(=O)(=O)c1ccc(Cl)cc1)Cc1cccnc1 — higher, > 48.7 µg/mL
- COc1ccccc1NC(=O)CCN1CCN(C)CC1 — 9.7-fold higher, 38.6 µg/mL (≈ 139 µM)
- Cc1ccsc1C(=O)NC(C)c1ccccc1 (stereo not given) — higher, > 36.8 µg/mL
- O=C(Nc1ccc(Cl)cc1)Nc1ccc(C(=O)N2CCOCC2)cc1 — 3.6-fold lower, 1.1 µg/mL (≈ 3.06 µM)
- O=C(c1ccco1)N1CCN(Cc2nc(Cc3ccccc3)no2)CC1 — 9.4-fold higher, 37.7 µg/mL (≈ 107 µM)
- Oc1ccc(C(=S)N2CCCC2)cc1 — higher, > 31.1 µg/mL
- CC(C(=O)N1CCCCCC1)N(c1ccc(Cl)cc1)S(C)(=O)=O (stereo not given) — 12-fold higher, 46.8 µg/mL (≈ 130 µM)
- O=c1c([N+](=O)[O-])c(N2CCCC2)c2ccccc2n1-c1ccccc1 — 12-fold higher, 46.7 µg/mL (≈ 139 µM)
- CN(C)CCSC1c2ccccc2CSc2ccccc21.Cl (stereo not given) — 13-fold higher, 51.6 µg/mL
- Cc1ccc(CNC(=O)CCc2cn(C)c3ccccc23)cc1 — within 1.5-fold, 5.1 µg/mL (≈ 16.6 µM)
- COc1ccc(CNC(=O)CCC(=O)Nc2ccc(Cl)cc2)cc1 — 3.1-fold lower, 1.3 µg/mL (≈ 3.75 µM)
- CCOC(=O)c1cnc(-c2ccccc2)nc1N1CC(C)OC(C)C1 (stereo not given) — 8-fold higher, 32.1 µg/mL (≈ 94 µM)
- CN(C)CCCN(C(=O)c1ccco1)c1nc2ccc(F)cc2s1.Cl — 14-fold higher, 55 µg/mL
- Cn1c(N)c(C(=O)COC(=O)c2ccc3ccccc3c2)c(=O)n(C)c1=O — within 1.5-fold, 3.8 µg/mL (≈ 10.3 µM)
- Cc1cccc(N2C(=O)CC(n3ccnc3)C2=O)c1C (stereo not given) — 8.2-fold higher, 32.9 µg/mL (≈ 122 µM)
- COc1ccccc1N1CCN(C(=O)c2c(-c3c(F)cccc3Cl)noc2C)CC1 — 13-fold higher, 52.9 µg/mL (≈ 123 µM)
- CC(C)(C)NCC(O)c1cc(O)cc(O)c1.O=S(=O)(O)O (stereo not given) — higher, > 41.1 µg/mL
- Cc1ccccc1S(=O)Cc1ccc(C(=O)NC2CC2)o1 (stereo not given) — higher, > 45.5 µg/mL
- COc1ccc(OC)c2sc(N3CCc4ccccc4C3)nc12 — 6.7-fold lower, 0.6 µg/mL (≈ 1.84 µM)
- Cc1ccccc1C(=O)OCC(=O)NCC1COc2ccccc2O1 (stereo not given) — 10-fold higher, 40.9 µg/mL (≈ 120 µM)
- O=C1Nc2ccccc2O/C1=C\c1ccccc1Br — within 1.5-fold, 3.3 µg/mL (≈ 10.4 µM)
- CN1CCN(C(=O)c2ccc(CNS(=O)(=O)c3ccc(F)c(Cl)c3)cc2)CC1 — 15-fold higher, 59.4 µg/mL (≈ 139 µM)
- CC1(C)CC(=O)C=C(Nc2ccc(F)c(Cl)c2)C1 — higher, > 40.2 µg/mL
- CCCCNC(=O)c1cc(C)nc2ccccc12 — higher, > 36.3 µg/mL
- O=C1Nc2ccccc2C1Cc1nc2ccccc2c(=O)n1-c1ccccc1 (stereo not given) — 14-fold higher, 55.1 µg/mL (≈ 150 µM)
- Cc1ccc2c(Cl)c(C(=O)NC3CC3)sc2c1 — lower, < 0.6 µg/mL
- COc1ccc(N(C)C(=O)c2sc(Cl)nc2C)cc1 — 11-fold higher, 42.7 µg/mL (≈ 144 µM)
- O=C(C[n+]1ccccc1)Nc1ccccc1C(F)(F)F.[Cl-] — higher, > 47.5 µg/mL
- COc1ccccc1C1=NOC(COC(=O)c2ccc([N+](=O)[O-])cc2)C1 (stereo not given) — lower, < 0.4 µg/mL
- C=CCN(CC=C)C(=O)C[n+]1ccc(C(N)=O)cc1.[Cl-] — higher, > 44.4 µg/mL
- O=C(COC(=O)c1ccc2ccccc2n1)NC1CCCCC1 — 2.1-fold higher, 8.5 µg/mL (≈ 27.2 µM)
- O=C(NC1=NCCS1)c1ccc(Cl)cc1 — 2.9-fold higher, 11.5 µg/mL (≈ 47.8 µM)
- O=C(NC(=O)N1CCSCC1)c1c(Cl)cccc1Cl — higher, > 47.9 µg/mL
- N=C1SCC(=O)N1c1ccccc1Cl — higher, > 34 µg/mL
- CCC1(c2ccc(F)cc2)NC(=O)N(CC(=O)NC2CCCC(C)C2C)C1=O (stereo not given) — 3.3-fold higher, 13.2 µg/mL (≈ 33.9 µM)
- O=C(Oc1ccc(F)cc1)N1CCOCC1 — higher, > 33.8 µg/mL
- O=C(CNC(=O)c1ccco1)Nc1ccc(OC(F)F)cc1 — higher, > 46.5 µg/mL
